Laboratory results taken from patent US10377755B2, “BCL-2 inhibitors” (Newave Pharmaceutical Inc., priority 2016, dated 2019).
pEC50, pIC50: −log10 of the molar value.

Experiments:
[1] = biological target: Mcl-1 (Homo sapiens (Human), UniProt Q07820); settings: cited from earlier work
[2] = system: CLL; settings: average; read-out: average EC50, apoptosis in CLL; cited from earlier work
[3] = system: RS4;11 xenografts; settings: single dose of 100 mg/kg; cited from earlier work
[4] = system: H146; experiment: In vitro anti-proliferation assay (ATPlite) in BCL-XL-dependent small cell lung cancer cell line H146; format: cell-based; settings: Homo sapiens, NCI-H146; about 72 hours, 5% FBS
Method: Cell antiproliferation is assayed by PerkinElmer ATPlite™ Luminescence Assay System. Briefly, the various test cancer cell lines are plated at a density of about 1×10^4 cells per well in Costar 96-well plates, and are incubated with different concentrations of compounds for about 72 hours in medium supplemented with 5% FBS. One lyophilized substrate solution vial is then reconstituted by adding 5 mL of substrate buffer solution, and is agitated gently until the solution is homogeneous. About 50 μL of mammalian cell lysis solution is added to 100 μL of cell suspension per well of a microplate, and the plate is shaken for about five minutes in an orbital shaker at ˜700 rpm. This procedure is used to lyse the cells and to stabilize the ATP. Next, 50 μL substrate solution is added to the wells and microplate is shaken for five minutes in an orbital shaker at ˜700 rpm. Finally, the luminescence is measured by a PerkinElmer TopCount® Microplate Scintillation Counter. Such assays, carried out with a range of doses of test compounds, allow the determination of the cellular anti-antiproliferative IC50 of the compounds of the present invention.

[5] = system: CLL; settings: Human Phase I and II; cited from earlier work
[6] = system: RS4;11 cells; settings: cited from earlier work

Chain of Mcl-1 (Q07820 whole entry): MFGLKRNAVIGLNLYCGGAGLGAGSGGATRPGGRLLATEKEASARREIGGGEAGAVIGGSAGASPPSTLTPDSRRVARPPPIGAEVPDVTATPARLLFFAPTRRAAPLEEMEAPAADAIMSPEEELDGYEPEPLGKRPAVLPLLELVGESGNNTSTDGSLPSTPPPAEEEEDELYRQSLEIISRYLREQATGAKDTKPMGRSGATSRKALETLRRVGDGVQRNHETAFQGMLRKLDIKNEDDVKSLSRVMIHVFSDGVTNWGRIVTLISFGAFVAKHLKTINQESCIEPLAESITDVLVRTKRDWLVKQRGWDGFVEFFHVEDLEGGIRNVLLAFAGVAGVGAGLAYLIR

In the case of `CC1(C)CCC(CN2CCN(c3ccc(C(=O)NS(=O)(=O)c4ccc(NCC5CCOCC5)c([N+](=O)[O-])c4)c(Oc4cnc5[nH]ccc5c4)c3)CC2)=C(c2ccc(Cl)cc2)C1` [ABT-199], the “activity to Mcl-1” value [1] is listed as “no activity”, the pEC50 [2] is listed as 8.52 and the “maximal tumor growth inhibition” value [3] is listed as 95%. For the same molecule, the tumor growth delay [3] was 152%, the pIC50 [4] was < 5.70 and the “clinical efficacy for CLL” value [5] was “highly efficacious”. For the same molecule, the clinical toxicity [5] was “lethal tumour lysis syndrome” and the pEC50 [6] was 8.10.
